The subject of data set [1] is hepatic intoxication induced by carbon tetrachloride. Kind of data set: Hepato-protecting activity, hepatic intoxication induced by carbon tetrachloride. It is filed as in vivo, rat. As to conditions: male Wistar rats, 100 mg/kg i.p.; for GPT x ± es: 15 minutes before CCl4 0,15 ml/kg oral, 24 hours; for GPT % INHIBITION VS. CONTROLS: CCl4 0,15 ml/kg. Here is the method:
Hepato-protecting activity of YS 795 was evaluated in comparison with N-acetylcystein, by means of the test of hepatic intoxication induced by carbon tetrachloride, according to the method by Sanna et al. (Experientia, 32 (1), 91, 1976).
Male Wistar rats (268-346 g body weight) fasted for 18 hours, with water "ad libitum", were used.
YS 795 and N-acetylcystein were administered intraperitoneally at the dose of 100 mg/kg, whereas the control group received the only carrier.
15 minutes after the drug administration, the animals were treated orally with 0,15 ml/kg of carbon tetrachloride.
After 24 more hours, the animals were killed by bleeding after ether anesthesia.

The test system of data set [2] is secretion of respiratory tract. Kind of data set: Bronchosecretagogue activity, sodium fluoresceine test. Format: in vivo, rat. As to conditions: male Wistar rats, 100 mg/kg; for SODIUM FLUORESCEINE: 10 animals. As to the method: Bronchosecretagogue activity was evaluated by means of sodium fluoresceine test, according to the procedure by Mawatari ("Experimental studies on the expectorant action of several drugs" Kagoshima Kaigaken Igaken Zasshi 27, 561, 1976), said test consisting in determining the sodium fluoresceine amount eliminated from respiratory tract: the higher the secretion, the higher the amount of sodium fluoresceine eliminated. Accordingly, any compound increasing the secretion of respiratory tract causes an increase in sodium fluoresceine elimination, which can easily be calculated.
Male Wistar rats (100-200 g body weight), fasted for 18 hours, with water "ad libitum", were administered with YS 795 at the dose of 100 mg/kg and, by comparison, with carboxymethyl cystein at equiponderal doses, by the oral route.
30 minutes after the treatment, sodium fluoresceine was injected subcutaneously and 30 minutes after the animals were killed by bleeding. The whole respiratory tree was then withdrawn and the percentage of sodium fluoresceine present was evaluated.

The test system of data set [3] is patients affected by chronic bronchitis. Kind of data set: Clinical study in patients affected by chronic bronchitis (tolerability and mucus regulating activity). As to conditions: 3×300 mg capsules a day. Format: in vivo, human. As to the method: YS 795 in capsules was administered to hospitalized patients affected by chronic bronchitis, in order to test tolerability and mucus regulating activity.
10 patients, 5 males and 5 females, of 65-70 years age, smokers or ex-smokers, were treated with YS 795 administered at a dose of 3×300 mg capsules a day, in the morning, at noon and in the night, with full stomach, for a period of 4 weeks.
All drugs having mucolytic, bronchodynamic, steroidal and balsamic activities were excluded during the observation period, whereas the "routine" therapy of concomitant diseases, based on administration of diuretic, hypotensive, antidiabetic, vasodilating and antibiotic drugs, was continued.
Before and after the treatment, tests were carried out to evaluate possible side-effects of YS 795 on hemopoietic, hepatic and renal functions; heart rate and arterial pressure were further checked during the treatment.

A short description of data set [4]: Pharmacokinetics, plasma and tissue concentrations by gaschromatographic analysis. It is filed as in vivo. As to conditions: rat. As to the method: Male CD-COBS rats weighing 200-220 g were used, treated with YS 795 and 4-thiazolidine-carboxylic acid by the oral or intraperitoneal route, in equimolecular amounts (YS 795=795=100 mg/kg; thiazolidine-carboxylic acid =65 mg/kg).
One hour after the treatment the animals were killed by beheading; blood was collected in heparinized test-tubes and centrifuged for 10 minutes at 3500 rpm to prepare plasma. The tissues (liver, lung, kidney and brain) were homogenized in 4 volumes of 0,05M phosphate buffer.
Tissular concentrations were studied by gaschromatographic analysis.

For another data set, the target named is collagenase. As to the kind of experiment: Collagenase inhibitory activity. Format: biochemical. As to conditions: read-out: IC50 collagenase inhibition. As to the method:
The inhibition of collagenase by means of YS 795 was evaluated according to the method by C. L. Hu, G. Crombie, C. Franzeblau (Analyt., Biochem. 88, 638, 1978).

For the next data set, the target named is elastase. As to the kind of experiment: Elastase-inhibitory activity. It is filed as biochemical. As to the method: Inhibition of elastase activity by YS 795 was evaluated according to the method by D. A. Hall, S. El Ridi (Methods of connective tissue research, Ioyson-Bruvvers Ltd.; Oxford--1976) and by R. M. Senior et al. (Elastine and elastic Tissue, Plenum Press, pp. 249-254, New York--1977).

The nature of data set [5]: Acute toxicity (LD50, Litchfield and Wilcoxon) in the mouse. As to conditions: in vivo, read-out: DL50 (the source's name). Here is the method: (§1) Acute toxicity of YS 795 was calculated in the rat and the mouse after both oral and intraperitoneal administrations.
(§2) LD50 was determined according to the method of Litchfield and Wilcoxon (J. Pharmacol. Exp. Therap. 96, 99-118, 1949).

Data set [6] is described as follows: Acute toxicity (LD50, Litchfield and Wilcoxon) in the rat. As to conditions: in vivo, read-out: DL50 (the source's name). As to the method:
as §1, §2

Data set [7] concerns emphysema induced by porcine pancreatic elastase. As to the kind of experiment: Emphysema induced by porcine pancreatic elastase in the hamster. It is filed as in vivo. As to the method:
Emphysema induced by porcine pancreatic elastase in the hamster.
Capability of YS 795 in preventing emphysema caused by instillation of elastase was studied according to the method by Stone P. J. et al. (Am. Rev. Respir. Dis.; 124/1; 1981) and by Yu et al. ("Elastin and elastic tissues"; Plenum Press; New York; 1977).
16 Hamsters weighing 100-120 g were divided in 4 groups of 4 animals each (Groups A, B, C and controls) and treated as follows:
Group A: in tratracheal instillation of 0,1 mg of porcine pancreatic elastase 1 hour after administration of 100 mg/kg of YS 795.
Group B: YS 795 was administered 1 hour after elastase instillation.
Group C: YS 795 was administered 4 hours after elastase instillation.
Controls: physiological saline was administered 1 hour after elastase instillation.
At set times (72 hours and 12 days), the animals were killed after intraperitoneal anesthesia with pentobarbital. Lungs were intubated through trachea and fixed.
Morphological and morphometrical analysis of the pulmonal sections were then carried out under a microscope.

Data set [8] is described as follows: Solubility of the obtained compound. It is filed as physicochemical.

The results in this text go back to patent US4874776A, “Compound having mucus regulating and elastase-inhibitory activities, for the therapy of pulmonal emphysema and pulmonal fibrosis” (Yason S.r.l., priority 1988, dated 1989).

Bounds are passed on as bounds.

By IC50 is commonly meant the concentration that gives 50% inhibition.

In the case of `CC(=O)N[C@@H](CS)C(=O)O` [N--ACETYLCYSTEIN, N-acetylcystein, reference compound], in [1], the “GPT x ± es” value was 168,2 ± 8,68 U/L and the “GPT % INHIBITION VS. CONTROLS” value is given as 52,9%.
For the compound `NC(CSCC(=O)O)C(=O)O` (stereo not drawn) [S--CARBOXYMETHYLCYSTEIN, reference compound], in data set [2], the “SODIUM FLUORESCEINE % Δ vs. controls” value is 80,6% and the “SODIUM FLUORESCEINE” value is recorded as 0,56 μg/ml.
In the case of `CCOC(=O)N1CSCC1C(=O)O` (stereo not drawn) [YS 795, N-carbethoxy-4-thiazolidine-carboxylic acid], the “GPT x ± es” value in data set [1] was 220 ± 84,47 U/L. Besides, the “GPT % INHIBITION VS. CONTROLS” value in data set [1] is on record as 38,4%. In addition, the “Fluidifying and mucus regulating activities” value in data set [3] (patients with chronic bronchitis, 4 weeks) was “good fluidifying and mucus regulating activities”. The “Effects on arterial pressure and heart rate” value in [3] (patients, 4 weeks) is on record as “no clinically significant effects”. Besides, in data set [3] (patients, 4 weeks), the “Tolerability at gastric level” value is given as “well tolerated”. Moreover, the “Effect on hemopoietic, hepatic and renal functions (laboratory tests)” value in [3] (patients, before and after 4 weeks) was “does not affect hemopoietic, hepatic and renal functions”. Moreover, the Metabolism entry in [4] is listed as “subsequently metabolized to n-thiazolidine-carboxylic acid”. Moreover, the “Time till which the compound is still found as such” value in data set [4] is 12 h. Besides, the “Time of plasmatic concentration peak” value in [4] (after the administration) is “between the first and the second hour”. Further, the “Drug amounts in liver and lungs in comparison with thiazolidine-carboxylic acid” value in data set [4] (equimolecular amounts (100 mg/kg vs. 65 mg/kg)) is “remarkanly higher”. Further, the “Tissue distribution (liver, lung, kidney, brain)” value in data set [4] (found as such and as thiazolidine-carboxylic derivative) is recorded as “present in all the examined tissues”. Further, the Absorption entry in data set [4] (oral and intraperitoneal route, 100 mg/kg) was “well adsorbed by both oral and intraperitonel route”. Moreover, the IC50 at collagenase worked out at 15 mM; on elastase, 11 mM. For the same compound, in data set [2], the “SODIUM FLUORESCEINE % Δ vs. controls” value is given as 70,9%. Also, the “SODIUM FLUORESCEINE” value in [2] is given as 0,53 μg/ml. Moreover, the LD50 in data set [5] (ip, female) is 372 mg/kg; in data set [5] (ip, male), 380 mg/kg; in data set [5] (po, os, male), more than 4000 mg/kg; in data set [6] (ip, female), 420 mg/kg; in data set [6] (ip, male), 415 mg/kg; in data set [6] (po, os, male) it was more than 4000 mg/kg. In data set [7] (administered 1 hour before vs. 1 or 4 hours after elastase instillation), the “Effect of the time of administration on the antiemphysema effect” value is given as “more marked when YS 795 was administered before elastase instillation”. Moreover, the “Antagonism of pulmonal emphysema (morphological and morphometrical analysis of pulmonal sections)” value in [7] (hamster, 100 mg/kg, 0,1 mg elastase intratracheal, 72 hours and 12 days) is “can antagonize pulmonal emphysema induced by porcine pancreatic elastase”. For the same compound, in data set [8] (common organic solvents), the “Solubility in common organic solvents” value is “soluble in common organic solvents”. Moreover, the Solubility in water entry in data set [8] (water) is reported as “unsoluble in water”.
